Test results published in PubChem BioAssay AID1259411 (Chemical Carcinogenesis Research Information System (CCRIS), 2018).
The source made the active and inactive calls. How the calls were made is not given here.

System: rodent carcinogenicity bioassays, tumor incidence
Experiment: CCRIS carcinogenicity studies
Outline: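 Archive of carcinogenicity, mutagenicity, tumor promotion and tumor inhibition results drawn from journals, NCI reports and other sources, expert-reviewed; covers 1985-2011 and is no longer updated.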

Measured: carcinogen call

Nc1ccc(Oc2ccc(N)cc2)cc1
active: Species: MOUSE, Strain/Sex: B6C3F1/FEMALE, Route: ORAL, Dose: 0, 0.015, 0.03, 0.08% IN DIET FOR 103 WK (STUDY DURATION: 104 WK), Dose: 0, 0.015, 0.03, 0.08% IN DIET FOR 103 WK (STUDY DURATION: 104 WK), Tumor Site: Type of Lesion: THYROID GLAND: FOLLICULAR ADENOMA, LIVER: ADENOMA, LIVER: HEPATOCELLULAR CARCINOMA, HARDERIAN GLAND: ADENOMA, Tumor Site: Type of Lesion: THYROID GLAND: FOLLICULAR ADENOMA, LIVER: ADENOMA, LIVER: HEPATOCELLULAR CARCINOMA, HARDERIAN GLAND: ADENOMA active; positive | Species: MOUSE, Strain/Sex: B6C3F1/FEMALE, Route: ORAL, Dose: 0, 150, 300, 800 PPM IN DIET, Dose: 0, 150, 300, 800 PPM IN DIET, Tumor Site: Type of Lesion: LIVER: HEPATOCELLULAR ADENOMA OR CARCINOMA, THYROID GLAND: FOLLICULAR CELL ADENOMA, HARDERIAN GLAND: ADENOMA, NOS, Tumor Site: Type of Lesion: LIVER: HEPATOCELLULAR ADENOMA OR CARCINOMA, THYROID GLAND: FOLLICULAR CELL ADENOMA, HARDERIAN GLAND: ADENOMA, NOS active; positive | Species: MOUSE, Strain/Sex: B6C3F1/MALE, Route: ORAL, Dose: 0, 0.015, 0.03, 0.08% IN DIET FOR 103 WK (STUDY DURATION: 104 WK), Dose: 0, 0.015, 0.03, 0.08% IN DIET FOR 103 WK (STUDY DURATION: 104 WK), Tumor Site: Type of Lesion: THYROID GLAND: FOLLICULAR HYPERPLASIA, HARDERIAN GLAND: ADENOMA active; positive | Species: MOUSE, Strain/Sex: B6C3F1/MALE, Route: ORAL, Dose: 0, 150, 300, 800 PPM IN DIET, Dose: 0, 150, 300, 800 PPM IN DIET, Tumor Site: Type of Lesion: LIVER: HEPATOCELLULAR ADENOMA OR CARCINOMA, HARDERIAN GLAND: ADENOMA, NOS active; positive | Species: RAT, Route: SUBCUTANEOUS, Tumor Site: Type of Lesion: LIVER active; positive | Species: RAT, Strain/Sex: F344/FEMALE, Route: ORAL, Dose: 0, 0.02, 0.04, 0.05% IN DIET FOR 103 WK (STUDY DURATION: 104 WK), Dose: 0, 0.02, 0.04, 0.05% IN DIET FOR 103 WK (STUDY DURATION: 104 WK), Tumor Site: Type of Lesion: THYROID GLAND: FOLLICULAR CARCINOMA, THYROID GLAND: FOLLICULAR ADENOMA, LIVER: NEOPLASTIC NODULE, LIVER: HEPATOCELLULAR, Tumor Site: Type of Lesion: THYROID GLAND: FOLLICULAR CARCINOMA, THYROID GLAND: FOLLICULAR ADENOMA, LIVER: NEOPLASTIC NODULE, LIVER: HEPATOCELLULAR active; positive | Species: RAT, Strain/Sex: F344/FEMALE, Route: ORAL, Dose: 0, 200, 400, 500 PPM IN DIET, Dose: 0, 200, 400, 500 PPM IN DIET, Tumor Site: Type of Lesion: LIVER: HEPATOCELLULAR CARCINOMA OR NEOPLASTIC NODULE, THYROID GLAND: FOLLICULAR CELL ADENOMA OR CARCINOMA active; positive | Species: RAT, Strain/Sex: F344/MALE, Route: ORAL, Dose: 0, 0.02, 0.04, 0.05% IN DIET FOR 103 WK (STUDY DURATION: 104 WK), Dose: 0, 0.02, 0.04, 0.05% IN DIET FOR 103 WK (STUDY DURATION: 104 WK), Tumor Site: Type of Lesion: THYROID GLAND: FOLLICULAR CARCINOMA, THYROID GLAND: FOLLICULAR ADENOMA, LIVER: NEOPLASTIC NODULE, LIVER: HEPATOCELLULAR, Tumor Site: Type of Lesion: THYROID GLAND: FOLLICULAR CARCINOMA, THYROID GLAND: FOLLICULAR ADENOMA, LIVER: NEOPLASTIC NODULE, LIVER: HEPATOCELLULAR active; positive | Species: RAT, Strain/Sex: F344/MALE, Route: ORAL, Dose: 0, 200, 400, 500 PPM IN DIET, Dose: 0, 200, 400, 500 PPM IN DIET, Tumor Site: Type of Lesion: LIVER: HEPATOCELLULAR CARCINOMA OR NEOPLASTIC NODULE, THYROID GLAND: FOLLICULAR CELL ADENOMA OR CARCINOMA active; positive

CCCCN(N=O)C(N)=O
active: Species: MOUSE (NEWBORN), Strain/Sex: CD-1/MALE,FEMALE, Route: SUBCUTANEOUS, Dose: 333 MG/KG IN 1% GEL SOLN WITHIN 24 HR OF BIRTH, Tumor Site: Type of Lesion: LUNG: ADENOMA, ADENOCARCINOMA, LIVER: ADENOMA active; positive | Species: RAT, Strain/Sex: F344/FEMALE, Route: GAVAGE, Dose: 0, 15 MG/ML (TOTAL DOSE 0; 1.7 MMOL) IN 2 ML ETHYL ACETATE AND CORN OIL (1:2) 2/WK FOR 40 WK (STUDY DURATION: LIFETIME), Dose: 0, 15 MG/ML (TOTAL DOSE 0; 1.7 MMOL) IN 2 ML ETHYL ACETATE AND CORN OIL (1:2) 2/WK FOR 40 WK (STUDY DURATION: LIFETIME), Tumor Site: Type of Lesion: FORESTOMACH: SQUAMOUS CELL CARCINOMA, LUNG: TUMOR, MAMMARY GLAND: TUMOR, UTERUS: TUMOR, Tumor Site: Type of Lesion: FORESTOMACH: SQUAMOUS CELL CARCINOMA, LUNG: TUMOR, MAMMARY GLAND: TUMOR, UTERUS: TUMOR active; positive | Species: RAT, Strain/Sex: F344/FEMALE, Route: GAVAGE, Dose: 0, 15 MG/ML IN 0.2 ML ETHYL ACETATE AND CORN OIL 2/WK FOR 40 WK (STUDY DURATION: LIFESPAN), Tumor Site: Type of Lesion: FORESTOMACH: TUMOR, LUNG: TUMOR, MAMMARY GLAND: TUMOR, UTERUS: TUMOR, Tumor Site: Type of Lesion: FORESTOMACH: TUMOR, LUNG: TUMOR, MAMMARY GLAND: TUMOR, UTERUS: TUMOR active; positive | Species: RAT, Strain/Sex: F344/MALE, Route: GAVAGE, Dose: 0, 15 MG/ML (TOTAL DOSE 0; 1.7 MMOL) IN 2 ML ETHYL ACETATE AND CORN OIL (1:2) 2/WK FOR 40 WK (STUDY DURATION: LIFETIME), Dose: 0, 15 MG/ML (TOTAL DOSE 0; 1.7 MMOL) IN 2 ML ETHYL ACETATE AND CORN OIL (1:2) 2/WK FOR 40 WK (STUDY DURATION: LIFETIME), Tumor Site: Type of Lesion: FORESTOMACH: SQUAMOUS CELL CARCINOMA, LUNG: TUMOR active; positive | Species: RAT, Strain/Sex: F344/MALE, Route: GAVAGE, Dose: 0, 15 MG/ML IN 0.2 ML ETHYL ACETATE AND CORN OIL 2/WK FOR 40 WK (STUDY DURATION: LIFESPAN), Tumor Site: Type of Lesion: FORESTOMACH: TUMOR, LUNG: TUMOR active; positive

O=C/C=C/c1ccccc1
inactive: Species: MOUSE, Strain/Sex: B6C3F1/MALE, FEMALE (50/GROUP), Route: ORAL, Dose: 0, 1000, 2100, 4100 PPM MICROENCAPSULATED IN DIET FOR 2 YR (STUDY DURATION: 2 YR), Dose: 0, 1000, 2100, 4100 PPM MICROENCAPSULATED IN DIET FOR 2 YR (STUDY DURATION: 2 YR), Tumor Site: Type of Lesion: NONE inactive; negative | Species: RAT, Strain/Sex: F344/N/MALE, FEMALE (50/GROUP), Route: ORAL, Dose: 0, 1000, 2100, 4100 PPM MICROENCAPSULATED IN DIET FOR 2 YR (STUDY DURATION: 2 YR), Dose: 0, 1000, 2100, 4100 PPM MICROENCAPSULATED IN DIET FOR 2 YR (STUDY DURATION: 2 YR), Tumor Site: Type of Lesion: NONE inactive; negative

CC(=O)N(O)c1ccc2ccc3cccc4ccc1c2c34
inactive: Species: RAT, Strain/Sex: STRAIN-CD/FEMALE, Route: INTRAPERITONEAL, Dose: 0, 67 UMOL/KG BW IN DMSO 3/WK FOR 4 WK (STUDY DURATION: 61 WK) inactive; negative | Species: RAT, Strain/Sex: STRAIN-CD/FEMALE, Route: INTRAPERITONEAL, Dose: 0, 67 UMOL/KG/BW IN 25 UMOL/ML DMSO 3/WK FOR 4 WK (TOTAL DOSE: 0; 119 UMOL) ADMINISTERED TO WEANLING RATS (STUDY DURATIO, Dose: 0, 67 UMOL/KG/BW IN 25 UMOL/ML DMSO 3/WK FOR 4 WK (TOTAL DOSE: 0; 119 UMOL) ADMINISTERED TO WEANLING RATS (STUDY DURATIO inactive; negative
